Like-named read-outs stand apart in the source and are kept apart here.
Molecular target: rat MCH-1 (Rattus norvegicus, UniProt P97639)
Test: Radioligand binding assay at cloned rat MCH1 receptor ([3H] Compound A)
Set-up: host or cells: Peak rapid 293 (Peakr293) cells, transient calcium phosphate transfection, membranes
Conditions: cloned rat MCH1 receptor, 0.08 nM [3H] Compound A, read-out: Ki (nM) rMCH1

Chain of rat MCH-1 (P97639 whole entry): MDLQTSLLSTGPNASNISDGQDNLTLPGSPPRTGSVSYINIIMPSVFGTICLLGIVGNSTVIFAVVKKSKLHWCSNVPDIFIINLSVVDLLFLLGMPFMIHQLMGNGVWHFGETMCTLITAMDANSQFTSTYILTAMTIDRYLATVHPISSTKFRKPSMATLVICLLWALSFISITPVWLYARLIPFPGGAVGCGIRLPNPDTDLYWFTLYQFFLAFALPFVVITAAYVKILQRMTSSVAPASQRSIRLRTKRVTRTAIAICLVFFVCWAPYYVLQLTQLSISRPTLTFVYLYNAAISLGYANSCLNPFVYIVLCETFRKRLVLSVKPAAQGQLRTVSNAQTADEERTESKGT

| SMILES | Ki (Peakr293 cell membranes) [nM] | Ki (membranes from Peakr293 cells) [nM] |
| --- | --- | --- |
| CC(C)C(=O)Nc1cccc(C2CCN(CCCNC(=O)N3C(=O)OC[C@@H]3c3cc(F)c(F)c(F)c3)CC2)c1 [Example 577] | 64.7 | – |
| Cc1ccc2[nH]cc(CCN3CCC(c4cccc(NC(=O)C(C)C)c4)CC3)c2c1 [Example 411] | 82.3 | – |
| Cc1ccc2[nH]c(-c3ccc(Cl)cc3)c(CCCN3CCC(c4cccc(NC(=O)C(C)C)c4)CC3)c2c1 [Example 720] | 12.5 | – |
| CC(C)C(=O)Nc1cccc(C2CCN(C[C@@H](C)COc3ccccc3Br)CC2)c1 [Example 372] | – | 358 |
| CC(C)C(=O)Nc1cccc(C2CCN(CCCc3ccncc3)CC2)c1 [Example 805] | 904 | – |
| CC(C)C(=O)Nc1cccc(C2CCN(Cc3ccc(Oc4ccccc4)nc3)CC2)c1 [Example 224] | – | 48 |
| CCC(=O)Nc1cccc(C2CCN(CCCC(=O)c3ccc(F)cc3)CC2)c1 [Example 535] | 28.1 | – |
| CC(C)C(=O)Nc1cccc(C2CCN(CCCCNC(=O)c3ccc(F)c(F)c3)CC2)c1 [Example 658] | 12 | – |
| CC(C)C(=O)Nc1cccc(C2CCN(Cc3ccc(-c4cccs4)s3)CC2)c1 [Example 236] | – | 97.7 |
| CC(C)C(=O)Nc1cccc(C2CCN(Cc3cn(-c4ccccc4)c4cc(OCc5ccccc5)ccc34)CC2)c1 [Example 504] | 22.5 | – |
| O=C(Nc1cccc(C2CCN(Cc3c[nH]c4ccc(F)cc34)CC2)c1)C1CC1 [Example 481] | 664 | – |
| CC(C)C(=O)Nc1cccc(C2CCN(Cc3cn(-c4cccc(Cl)c4)c4cc(Cl)ccc34)CC2)c1 [Example 480] | 9 | – |
| COc1ccc(Oc2ccc(CN3CCC(c4cccc(NC(=O)C(C)C)c4)CC3)cc2)cc1 [Example 196] | – | 35.2 |
| CC(C)C(=O)Nc1cccc(C2CCN(CCCCNC(=O)c3cc(Cl)cc(Cl)c3)CC2)c1 [Example 655] | 31.1 | – |
| CC(C)C(=O)Nc1cccc(C2CCN(CCCCC(Oc3cc(C(F)(F)F)ccc3F)c3cccc(Cl)c3)CC2)c1 (stereo not shown) [Example 930] | 14.6 | – |
| CC(C)C(=O)Nc1cccc(C2CCN(CCCCC(=O)c3ccc(Br)cc3)CC2)c1 [Example 667] | 43.9 | – |
| CC(C)C(=O)Nc1cccc(C2CCN(CCC(Oc3ccc(Cl)cc3)c3ccc(Cl)cc3)CC2)c1 (stereo not shown) [Example 172] | – | 3 |
| Cc1cccc(-n2ccc3cc(CN4CCC(c5cccc(NC(=O)C(C)C)c5)CC4)ccc32)c1 [Example 835] | 21.3 | – |
| CC(=O)c1cccc(OCCCCCN2CCC(c3cccc(NC(=O)C(C)C)c3)CC2)c1 [Example 381] | – | 235 |
| CC(C)C(=O)Nc1cccc(C2CCN(CCC(=O)c3ccc4c(c3)CCC4)CC2)c1 [Example 120] | – | 31.1 |
| CC(C)C(=O)Nc1cccc(C2CCN(CCCCC(=O)c3cccc(I)c3)CC2)c1 [Example 672] | 19.7 | – |
| CC(C)C(=O)Nc1cccc(C2CCN(CC[C@H](NC(=O)NCc3ccccc3)c3ccccc3)CC2)c1 [Example 609] | 35.4 | – |
| CC(C)C(=O)Nc1cccc(C2CCN(Cc3cn(-c4cccc(C(F)(F)F)c4)c4ccccc34)CC2)c1 [Example 442] | 7.8 | – |
| CC(C)C(=O)Nc1ccccc1C1CCN(CCCC(c2ccc(F)cc2)c2ccc(F)cc2)CC1 [Example 276] | – | 734 |
| CC(C)C(=O)Nc1cccc(C2CCN(CCCCC(Oc3ccc(F)cc3)c3ccc(F)cc3)CC2)c1 (stereo not shown) [Example 926] | 1.4 | – |

| SMILES | Ki (Peakr293 cell membranes) [nM] | Ki (membranes from Peakr293 cells) [nM] |
| --- | --- | --- |
| CC(C)C(=O)Nc1cccc(C2CCN(Cc3ccc4ccccc4n3)CC2)c1 [Example 255] | – | 590 |
| CC(C)C(=O)Nc1cccc(C2CCN(CCCCCCNC(=O)Nc3ccc(-c4ccccc4)cc3)CC2)c1 [Example 635] | 73.6 | – |
| CC(C)C(=O)Nc1cccc(C2CCN(CCCNC(=O)N3C(=O)OC[C@@H]3c3ccc(F)c(F)c3)CC2)c1 [Example 576] | 74.3 | – |
| CC(C)C(=O)Nc1cccc(C2CCN(CCCCCCNC(=O)c3cc(C(C)(C)C)nn3Cc3ccccc3)CC2)c1 [Example 629] | 42.9 | – |
| CC(C)C(=O)Nc1cccc(C2CCN(CCCCCC(=O)c3ccccc3)CC2)c1 [Example 529] | 42.4 | – |
| Cc1onc(-c2c(Cl)cccc2Cl)c1C(=O)NCCCCN1CCC(c2cccc(NC(=O)C(C)C)c2)CC1 [Example 651] | 16.7 | – |
| CC(C)C(=O)Nc1cccc(C2CCN(CC[C@H](NC(=O)c3sccc3Cl)c3ccccc3)CC2)c1 [Example 314] | – | 7.6 |
| CC(C)C(=O)Nc1cccc(C2CCN(C[C@H](C)COc3ccccc3Cl)CC2)c1 [Example 361] | – | 311 |
| CC(C)C(=O)Nc1cccc(C2CCN(CCCc3c(-c4ccccc4F)[nH]c4c3ccc3ccccc34)CC2)c1 [Example 697] | 3 | – |
| CC(C)C(=O)Nc1cccc(C2CCN(CCCc3c(-c4cccc([N+](=O)[O-])c4)n(C)c4ccccc34)CC2)c1 [Example 772] | 14.9 | – |
| CC(C)C(=O)Nc1cccc(C2CCN(Cc3cccc4c3ccn4-c3cc(Cl)cc(Cl)c3)CC2)c1 [Example 863] | 269 | – |
| Cc1onc(-c2ccccc2)c1C(=O)OCCCCCCN1CCC(c2cccc(NC(=O)C(C)C)c2)CC1 [Example 298, 6-{4-[3-(ISOBUTYRYLAMINO)PHENYL]-1-PIPERIDINYL}HEXYL 5-METHYL-3-PHENYL-4-ISOXAZOLECARBOXYLATE] | – | 40.1 |
| CC(C)C(=O)Nc1cccc(C2CCN(CC[C@H](NC(=O)c3ccc(F)cc3F)c3ccccc3)CC2)c1 [Example 312] | – | 61.5 |
| CC(C)C(=O)Nc1cccc(C2CCN(CCC[S+]([O-])c3ccc(F)cc3)CC2)c1 (stereo not shown) [Example 590] | 157 | – |
| CC(C)C(=O)Nc1cccc(C2CCN(CCCCCCC(Oc3cc(C(F)(F)F)ccc3F)c3ccccc3F)CC2)c1 (stereo not shown) [Example 917] | 78 | – |
| CCC(=O)Nc1ccc(C2CCN(CCCc3c(-c4ccccc4)n(-c4ccccc4)c4ccccc34)CC2)cc1 [Example 798] | 475 | – |
| CC(C)C(=O)Nc1cccc(C2CCN(Cc3cn(-c4ccc(Cl)cc4)c4ccccc34)CC2)c1 [Example 459] | 10.4 | – |
| CC(C)C(=O)Nc1cccc(C2CCN(CCCc3c(-c4cccc(I)c4)n(-c4ccccc4)c4ccccc34)CC2)c1 [Example 739] | 214 | – |
| CC(C)C(=O)Nc1cccc(C2CCN(Cc3cccc4cc[nH]c34)CC2)c1 [Example 832] | 614 | – |
| CC(C)C(=O)Nc1cccc(C2CCN(CCCCc3c(-c4ccccc4)n(-c4ccccc4)c4ccccc34)CC2)c1 [Example 392] | – | 18.1 |
| CC(C)C(=O)Nc1cccc(C2CCN(Cc3ccc(-c4ccccc4)s3)CC2)c1 [Example 233] | – | 125 |
| Cc1ccc(-n2ccc3c(CN4CCC(c5cccc(NC(=O)C(C)C)c5)CC4)cccc32)cc1C [Example 862] | 438 | – |
| Cc1cc(CN2CCC(c3cccc(NC(=O)C(C)C)c3)CC2)c(C)n1-c1cccc(C(F)(F)F)c1 [Example 109] | – | 20.9 |
| CC(C)C(=O)Nc1cccc(C2CCN(CC[C@H](NC(=O)c3cccs3)c3ccccc3)CC2)c1 [Example 323] | – | 37 |
| Cc1cccc2c(CCCN3CCC(c4cccc(NC(=O)C(C)C)c4)CC3)c(-c3ccccc3Cl)[nH]c12 [Example 733] | 10 | – |

| SMILES | Ki (Peakr293 cell membranes) [nM] | Ki (membranes from Peakr293 cells) [nM] |
| --- | --- | --- |
| CC(C)C(=O)Nc1cccc(C2CCN(CCCCC(Oc3cc(C(F)(F)F)ccc3F)c3cccc(F)c3)CC2)c1 (stereo not shown) [Example 932] | 9.4 | – |
| CC(C)C(=O)Nc1cccc(C2CCN(Cc3cccc4c3ccn4-c3ccccc3Cl)CC2)c1 [Example 877] | 245 | – |
| CC(C)C(=O)Nc1cccc(C2CCN(CCCc3c(-c4ccc(C(F)(F)F)cc4)[nH]c4ccccc34)CC2)c1 [Example 684] | 5.4 | – |
| CC(C)C(=O)Nc1cccc(C2CCN(CCCc3c(-c4ccccc4)[nH]c4c3ccc3ccccc34)CC2)c1 [Example 388] | – | 20.7 |
| Cc1ccccc1NC(=S)N[C@@H](CCN1CCC(c2cccc(NC(=O)C(C)C)c2)CC1)c1ccccc1 [Example 608] | 34.9 | – |
| O=C(CCCCN1CCC(c2cccc(NC(=O)C3CC3)c2)CC1)c1ccc(Cl)cc1 [Example 558] | 20.2 | – |
| COc1cccc(-n2ccc3cc(CN4CCC(c5cccc(NC(=O)C(C)C)c5)CC4)ccc32)c1 [Example 839] | 62.2 | – |
| CC(C)C(=O)Nc1cccc(C2CCN(Cc3ccc(-c4ccc(C(F)(F)F)cc4Cl)o3)CC2)c1 [Example 220] | – | 159 |
| CC(C)C(=O)Nc1cccc(C2CCN(CC[C@H](Oc3ccc(Cl)c(Cl)c3)c3ccccc3)CC2)c1 [Example 808] | 10.8 | – |
| Cc1onc(-c2ccccc2Cl)c1C(=O)NCCCCN1CCC(c2cccc(NC(=O)C(C)C)c2)CC1 [Example 680] | 28.1 | – |
| CC(C)C(=O)Nc1cccc(C2CCN(CCCCC(Oc3cc(C(F)(F)F)ccc3F)c3ccccc3F)CC2)c1 (stereo not shown) [Example 931] | 9.6 | – |
| CC(C)C(=O)Nc1cccc(C2CCN(Cc3ccc4c(ccn4-c4cccc(Cl)c4Cl)c3)CC2)c1 [Example 854] | 13.8 | – |
| CC(C)C(=O)Nc1cccc(C2CCN(CCCCCc3c(-c4ccccc4)[nH]c4c3ccc3ccccc34)CC2)c1 [Example 398] | – | 13.6 |
| COc1ccc(C(CCN2CCC(c3cccc(NC(=O)C(C)C)c3)CC2)Oc2ccccc2C(C)=O)cc1 (stereo not shown) [Example 185] | – | 20.6 |
| Cc1ccc2[nH]c(-c3ccccc3I)c(CCCN3CCC(c4cccc(NC(=O)C(C)C)c4)CC3)c2c1 [Example 787] | 21.6 | – |
| COc1cccc(OCCCCN2CCC(c3cccc(NC(=O)C(C)C)c3)CC2)c1 [Example 376] | – | 888 |
| CC(C)C(=O)Nc1cccc(C2CCN(CC[C@H](NC(=O)c3cccc(Cl)c3)c3ccccc3)CC2)c1 [Example 305] | – | 177 |
| COc1ccc2c(CN3CCC(c4cccc(NC(=O)C(C)C)c4)CC3)c[nH]c2c1 [Example 497] | 97.7 | – |
| CC(C)C(=O)Nc1cccc(C2CCN(Cc3c(-c4ccccc4N)[nH]c4ccccc34)CC2)c1 [Example 424] | 114 | – |
| CC(C)C(=O)Nc1cccc(C2CCN(CCCNS(=O)(=O)c3ccc(Cl)c([N+](=O)[O-])c3)CC2)c1 [Example 640] | 11.2 | – |
| CC(C)C(=O)Nc1cccc(C2CCN(CCC(Oc3ccc(Br)cc3)c3ccc(Br)cc3)CC2)c1 (stereo not shown) [Example 158] | – | 7.8 |
| CCC(=O)Nc1cccc(C2CCN(CCCCC(=O)c3ccc(Cl)cc3)CC2)c1 [Example 561] | 92.9 | – |
| O=C(Nc1cccc(C2CCN(CCCCCCSc3ccccc3)CC2)c1)C1CC1 [Example 582] | 58.3 | – |

— US6727264B1 (Synaptic Pharmaceutical Corporation, priority 2001, dated 2004)
